Test system: frozen embryos of C57BL/6J
Assay: Recovery of re-frozen and re-thawed blastocysts, cytochalasin B vs Y-27632 (Treatment Example 10)
Assay type: cell-based, mouse
Details: for RECOVERY RATE about 3 hours later / RECOVERY RATE about 24 hours later / RECOVERY RATE immediately after thawing / number of embryos ABOUT 3 HOURS LATER / number of embryos ABOUT 24 HOURS LATER / number of embryos IMMEDIATELY AFTER THAWING: 19 embryos
Experimental: In this treatment example, as in the above-mentioned treatment example 9, the normal medium (hereinafter, referred to as “Y− medium” as in the treatment example 9), the temporary treatment medium to which Y-27632 is added (hereinafter, referred to as “Y+ medium” as in the treatment example 9), and a CB-added medium (hereinafter, referred to as “CB+ medium”) were used. The concentrations of CB in the CB+ medium were 5 μM and 10 μM are prepared. As the manipulation, the recovery rates when frozen embryos were thawed and developed, then re-frozen in blastocysts and re-thawed were compared.
For the treatment, 107 frozen embryos of C57BL/6J (provided from CLEA Japan, Inc.) at the 2-cell stage were used. Firstly, the frozen embryos at the 2-cell stage were thawed and blastocysts were developed as they were in a normal medium.
Then, the blastocysts were then transferred to each of the above media and placed for 30 minutes. Then, the embryos were transferred to Y− medium again and placed for 30 minutes.
Then, each embryo was frozen.
Then, the embryos were then thawed and placed in M2 medium for 10 minutes.
Then, each embryo was evenly divided and placed on the medium for 1 hour.
The embryos were observed by returning to the Y− medium again. This observation was performed immediately after thawing, 3 hours later, and 24 hours later.

C=C1[C@@H](C)[C@H]2[C@H](Cc3ccccc3)NC(=O)[C@]23OC(=O)/C=C/[C@H](O)CCC[C@@H](C)C/C=C/[C@H]3[C@@H]1O [CB+ mWM, 2H-Oxacyclotetradecino[2,3-d]isoindole-2,18(5H)-dione, 6,7,8,9,10,12a,13,14,15,15a,16,17-dodecahydro-5,13-dihydroxy-9,15-dimethyl-14-methyl ene-16-(phenylmethyl)-, (3E,5R,9R,11E,12aS,13S,15S,15aS,16S,18aS)-]
RECOVERY RATE about 3 hours later (5 μM in mWM): 94%
RECOVERY RATE about 24 hours later (5 μM in mWM): 78%
RECOVERY RATE immediately after thawing (5 μM in mWM): 26%
number of embryos ABOUT 3 HOURS LATER (5 μM in mWM): 18
number of embryos ABOUT 24 HOURS LATER (5 μM in mWM): 15
number of embryos IMMEDIATELY AFTER THAWING (5 μM in mWM): 5
RECOVERY RATE about 3 hours later (10 μM in mWM): 52%
RECOVERY RATE about 24 hours later (10 μM in mWM): 63%
RECOVERY RATE immediately after thawing (10 μM in mWM): 10%
number of embryos ABOUT 3 HOURS LATER (10 μM in mWM): 10
number of embryos ABOUT 24 HOURS LATER (10 μM in mWM): 12
number of embryos IMMEDIATELY AFTER THAWING (10 μM in mWM): 2
recovery rate of 5 μM higher than that of 10 μM (after 24 hours): 15%

— US20230220331A1, “TEMPORARY TREATMENT MEDIUM, TREATMENT KIT, EMBRYOGENESIS ARREST INHIBITOR, EMBRYOGENESIS ARREST INHIBITORY METHOD, DEVELOPMENTAL ENGINEERING PRODUCT PREPARATION METHOD, TRANSPLANTATION METHOD, THERAPEUTIC METHOD, AND DEVELOPMENTAL ENGINEERING PRODUCT” (priority 2020, published 2023)
